Earlier results as cited in patent publication US20100029551A1, “Treatment Of Inflammatory Lung Conditions With Aerosolized Macrolide Antibiotics” (priority 2008, published 2010).

With CO[C@]1(C)C[C@@H](C)C(=O)[C@H](C)[C@@H](O)[C@](C)(O)[C@@H](C(C)O)OC(=O)[C@H](C)[C@@H](O[C@H]2C[C@@](C)(OC)[C@@H](O)[C@H](C)O2)[C@H](C)[C@H]1O[C@@H]1O[C@H](C)C[C@H](N(C)C)[C@H]1O (some centres unmarked) [14-hydroxy clarithromycin] as the compound, how does the “Activity relative to clarithromycin” value (first-pass metabolite of clarithromycin) read?
The value was “approximately twice as active as clarithromycin”.

And the “Plasma half-life relative to clarithromycin” value (plasma)?
Its value is “significantly longer plasma half-life than clarithromycin”.
